Experimental data as given in DBAASP.
≈ marks a conversion by molar mass, not a printed value. Each block holds one molecule with its values, some of them ahead of it.

Columns and labels:
Assay in all cases: ≥ marks a high value that may be exact or a test limit, other limits are often not marked, values filed in µg/mL are converted to µM
[1] = tested on: Streptococcus pyogenes M1T1 5448
Escherichia coli BL21 = tested on: Escherichia coli BL21
[2] = tested on: Pseudomonas aeruginosa PAO1
[3] = tested on: Pseudomonas aeruginosa ATCC 27853
[4] = tested on: Staphylococcus aureus ATCC 49476
Staphylococcus aureus MR = tested on: Staphylococcus aureus MR
Candida albicans = tested on: Candida albicans
[5] = tested on: Pseudomonas aeruginosa Ps4
[6] = tested on: Klebsiella pneumoniae ATCC 700603
[7] = tested on: Salmonella enterica ATCC 6539
[8] = tested on: Acinetobacter baumannii ATCC BAA-747
[9] = tested on: Enterococcus faecium ATCC 700221
[10] = tested on: Escherichia coli ATCC 25922
[11] = tested on: Staphylococcus aureus ATCC 43300
Candida albicans CA1 = tested on: Candida albicans CA1
[12] = tested on: Candida krusei ATCC 40147
[13] = tested on: Pseudomonas aeruginosa PA14
Escherichia coli EC18 = tested on: Escherichia coli EC18
Escherichia coli EC16 = tested on: Escherichia coli EC16
[14] = tested on: Candida parapsilosis ATCC 90018
[15] = tested on: Candida albicans ATCC 90029
[16] = tested on: Klebsiella pneumoniae KP1
[17] = tested on: Acinetobacter baumannii AB1
[18] = tested on: Candida tropicalis ATCC 750
[19] = tested on: Staphylococcus aureus MW2
[20] = tested on: Klebsiella pneumoniae WGLW2
[21] = tested on: Candida albicans ATCC 10231
[22] = tested on: Acinetobacter baumannii ATCC 7978
[23] = tested on: Staphylococcus aureus ATCC 29231
[24] = tested on: Cryptococcus neoformans ATCC 32264
[25] = tested on: Pseudomonas aeruginosa CICC 10419
[26] = tested on: Candida albicans CGMCC 2.2411
[27] = tested on: Enterococcus faecalis CVCC 3936
[28] = tested on: Salmonella enterica subsp. enterica serovar Typhimurium ATCC 14028
[29] = tested on: Bacillus subtilis ATCC 6633
[30] = tested on: Salmonella enterica subsp. enterica serovar Pullorum CVCC 533
[31] = tested on: Escherichia coli CVCC 1515
[32] = tested on: Streptococcus suis CVCC 606
[33] = tested on: Salmonella enterica subsp. enterica serovar Pullorum CVCC 1809
[34] = tested on: Escherichia coli CVCC 195
[35] = tested on: Listeria ivanovii ATCC 19119

MIC [19]: 30.1 µM (≈ 64 µg/mL)
MIC [20]: ≥ 60.2 µM
MIC [21]: 60.2 µM (≈ 128 µg/mL)
MIC [22]: 15.1 µM (≈ 32 µg/mL)
MIC [23]: ≥ 60.2 µM
SMILES: CC[C@H](C)[C@H](NC(=O)[C@H](Cc1c[nH]c2ccccc12)NC(=O)[C@H](CCCCN)NC(=O)[C@@H](N)CC(C)C)C(=O)NCC(=O)N[C@@H](CCCCN)C(=O)N[C@@H](CCCCN)C(=O)N[C@H](C(=O)N[C@@H](Cc1c[nH]c2ccccc12)C(=O)N[C@@H](CCCN=C(N)N)C(=O)N[C@H](C(=O)NCC(=O)N[C@@H](Cc1c[nH]c2ccccc12)C(=O)N[C@@H](CC(N)=O)C(=O)N[C@@H](Cc1c[nH]c2ccccc12)C(=O)N[C@@H](CCCN=C(N)N)C(=O)O)C(C)C)[C@@H](C)CC [LKWIGKKIWRVGWNWR]

MIC [24]: ≥ 200 µM
SMILES: NCCCC[C@H](NC(=O)[C@H](CCCCN)NC(=O)[C@H](Cc1c[nH]c2ccccc12)NC(=O)[C@H](CCCCN)NC(=O)[C@H](CCCN=C(N)N)NC(=O)[C@H](CCCN=C(N)N)NC(=O)[C@H](CCCCN)NC(=O)[C@@H](N)CCCN=C(N)N)C(N)=O [RKRRKWKK]

MIC [25]: ≥ 36.3 µM
MIC [26]: ≥ 36.3 µM
MIC [27]: 18.1 µM (≈ 32 µg/mL)
MIC [28]: 9.06 µM (≈ 16 µg/mL)
MIC [29]: 18.1 µM (≈ 32 µg/mL)
MIC [30]: 18.1 µM (≈ 32 µg/mL)
MIC [31]: 4.53 µM (≈ 8 µg/mL)
MIC [32]: ≥ 36.3 µM
MIC [11]: 36.3 µM (≈ 64 µg/mL)
MIC [33]: 9.06 µM (≈ 16 µg/mL)
MIC [34]: 4.53 µM (≈ 8 µg/mL)
MIC [35]: 4.53 µM (≈ 8 µg/mL)
SMILES: CC(C)[C@H](NC(=O)[C@H](CCCCN)NC(=O)[C@H](Cc1c[nH]c2ccccc12)NC(=O)[C@H](CCCN=C(N)N)NC(=O)CNC(=O)[C@H](CCC(N)=O)NC(=O)[C@@H](NC(=O)[C@@H](N)CCCN=C(N)N)C(C)C)C(=O)N[C@@H](CCCN=C(N)N)C(=O)N[C@@H](C)C(=O)N[C@@H](CO)C(=O)N[C@@H](Cc1ccccc1)C(=O)N[C@@H](Cc1ccccc1)C(=O)N[C@@H](CCCCN)C(=O)O [RVQGRWKVRASFFK]

Further lines, the molecule ahead of its results:

SMILES: CC[C@H](C)[C@H](NC(=O)[C@H](Cc1c[nH]c2ccccc12)NC(=O)[C@H](C)NC(=O)[C@H](CCCN=C(N)N)NC(=O)[C@H](CCCCN)NC(=O)CNC(=O)[C@H](CCCCN)NC(=O)[C@H](CCC(=O)O)NC(=O)[C@H](CCC(N)=O)NC(=O)[C@@H](NC(=O)[C@H](CCCCN)NC(=O)[C@H](CCCCN)NC(=O)[C@H](CCCCN)NC(=O)[C@H](CC(C)C)NC(=O)[C@H](CCCN=C(N)N)NC(=O)[C@H](CCC(N)=O)NC(=O)[C@H](Cc1ccccc1)NC(=O)[C@@H](NC(=O)[C@@H](NC(=O)[C@H](CCC(=O)O)NC(=O)[C@H](CCCCN)NC(=O)CNC(=O)[C@H](C)N)[C@@H](C)O)[C@@H](C)CC)[C@@H](C)CC)C(=O)N[C@@H](C)C(=O)N[C@@H](Cc1c[nH]c2ccccc12)C(=O)O [AGKETIFQRLKKKIQEKGKRAWIAW]
MIC [1]: 0.125 µM (≈ 0.377 µg/mL)
MIC (Escherichia coli BL21): 0.0156 µM (≈ 0.047 µg/mL)
MIC [2]: 32 µM (≈ 96.5 µg/mL)

SMILES: CC[C@H](C)[C@H](NC(=O)[C@H](CO)NC(=O)[C@H](Cc1ccccc1)NC(=O)[C@H](CC(C)C)NC(=O)CNC(=O)CNC(=O)[C@@H](NC(=O)[C@@H](NC(=O)[C@H](Cc1cnc[nH]1)NC(=O)[C@H](Cc1cnc[nH]1)NC(=O)[C@@H](NC(=O)[C@@H](N)Cc1ccccc1)[C@@H](C)CC)[C@@H](C)CC)[C@@H](C)CC)C(=O)NCC(=O)N[C@@H](CCCCN)C(=O)N[C@H](C(=O)N[C@H](C(=O)N[C@@H](Cc1cnc[nH]1)C(=O)N[C@@H](CCCN=C(N)N)C(=O)N[C@@H](CC(C)C)C(=O)N[C@H](C(=O)N[C@@H](CCCN=C(N)N)C(=O)N[C@@H](CCCN=C(N)N)C(=O)N[C@@H](CCCN=C(N)N)C(=O)N[C@@H](CCCN=C(N)N)C(=O)N[C@@H](CCCN=C(N)N)C(=O)O)[C@@H](C)CC)[C@@H](C)CC)[C@@H](C)CC [FIHHIIGGLFSIGKIIHRLIRRRRR]
MIC [3]: 167 µM (≈ 512 µg/mL)
MIC [4]: 5.22 µM (≈ 16 µg/mL)
MIC (Staphylococcus aureus MR): 20.9 µM (≈ 64 µg/mL)
MIC (Candida albicans): 41.8 µM (≈ 128 µg/mL)

SMILES: CC[C@H](C)[C@H](NC(=O)[C@H](CC(N)=O)NC(=O)[C@H](CCCN=C(N)N)NC(=O)[C@H](CCC(N)=O)NC(=O)[C@H](Cc1c[nH]c2ccccc12)NC(=O)[C@@H](N)Cc1ccccc1)C(=O)N[C@@H](CCCN=C(N)N)C(=O)N[C@@H](CCCCN)C(=O)N[C@H](C(=O)N[C@@H](CCCN=C(N)N)C(N)=O)C(C)C [FWQRNIRKVR]
MIC [5]: ≥ 178 µM

SMILES: NCCCC[C@H](NC(=O)CNC(=O)CNC(=O)[C@H](CCCN=C(N)N)NC(=O)[C@H](CS)NC(=O)[C@H](Cc1ccc(O)cc1)NC(=O)[C@H](Cc1c[nH]c2ccccc12)NC(=O)[C@H](CCCN=C(N)N)NC(=O)[C@H](Cc1c[nH]c2ccccc12)NC(=O)[C@H](Cc1cnc[nH]1)NC(=O)CNC(=O)CN)C(N)=O [GGHWRWYCRGGK]
MIC [6]: 11 µM (≈ 16.1 µg/mL)
MIC [7]: 1 µM (≈ 1.46 µg/mL)
MIC [3]: 11 µM (≈ 16.1 µg/mL)
MIC [8]: 11 µM (≈ 16.1 µg/mL)
MIC [9]: 3 µM (≈ 4.39 µg/mL)
MIC [10]: 3 µM (≈ 4.39 µg/mL)
MIC [11]: 11 µM (≈ 16.1 µg/mL)

SMILES: CC[C@H](C)[C@H](NC(=O)CNC(=O)[C@H](C)NC(=O)[C@H](CCCCN)NC(=O)CNC(=O)[C@H](CCSC)NC(=O)[C@H](CCC(=O)O)NC(=O)[C@H](CCCCN)NC(=O)[C@@H](NC(=O)[C@@H](NC(=O)[C@H](CCCCN)NC(=O)[C@@H](NC(=O)[C@@H](NC(=O)[C@H](CCCCN)NC(=O)[C@H](CC(=O)O)NC(=O)[C@H](CCCCN)NC(=O)[C@H](Cc1cnc[nH]1)NC(=O)[C@H](CCCCN)NC(=O)[C@H](CC(N)=O)NC(=O)[C@H](Cc1c[nH]c2ccccc12)NC(=O)[C@H](Cc1c[nH]c2ccccc12)NC(=O)[C@H](CC(=O)O)NC(=O)[C@H](CCCCN)NC(=O)[C@H](CC(C)C)NC(=O)CN)[C@@H](C)CC)C(C)C)C(C)C)C(C)C)C(=O)N[C@@H](CC(N)=O)C(=O)N[C@@H](C)C(=O)N[C@@H](C)C(N)=O [GLKDWWNKHKDKIVKVVKEMGKAGINAA]
MIC (Candida albicans CA1): 5 µM (≈ 15.8 µg/mL)
MIC [12]: 2.5 µM (≈ 7.91 µg/mL)
MIC [13]: 5 µM (≈ 15.8 µg/mL)
MIC (Escherichia coli EC18): 10 µM (≈ 31.6 µg/mL)
MIC (Escherichia coli EC16): 5 µM (≈ 15.8 µg/mL)
MIC [14]: 10 µM (≈ 31.6 µg/mL)
MIC [15]: 10 µM (≈ 31.6 µg/mL)
MIC [16]: 5 µM (≈ 15.8 µg/mL)
MIC [17]: 10 µM (≈ 31.6 µg/mL)
MIC [18]: 10 µM (≈ 31.6 µg/mL)
